Source: paper PMC9298260, “An Immunomodulatory Peptide Dendrimer Inspired from Glatiramer Acetate” (Angewandte Chemie (International Ed. in English), 2021)

Legend:
[1] = test system: IL-1Ra release from human primary monocytes; experiment: IL-1Ra release from human primary monocytes, immunoassay (ELISA) of supernatants; assay type: cell-based; parameters: key: +: Ability to induce IL-1Ra on primary monocytes after 48 h of incubation; Ability to induce IL-1Ra on primary monocytes after 48 h of incubation; details: for Act. (ability to induce IL-1Ra): primary monocytes, 48 h; for IL-1Ra: ability to induce IL-1Ra on primary monocytes after 48 h of incubation, class + / -
Experimental: (§1) As an activity screen we focused on interleukin‐1 receptor antagonist (IL‐1Ra), a cytokine released by circulating antigen presenting cells (APC) in response to GA.[15, 35] […] To test our dendrimers, we quantified by immunoassay the release of IL‐1Ra from human primary monocytes of healthy donors, an easily accessible type of APC, stimulated or not by addition of lipopolysaccharide (LPS), which in our hands provided a reliable read‐out.[15] We tested at defined weight/volume (25 and 50 μg mL^−1 compound as typically reported for GA)[15, 35] to account for a possible activity increase with MW as often observed with dendrimers when using molarity. In the initial screen the levels of secreted IL‐1Ra remained below 1 ng mL^−1 for all the smaller test compounds as well as with the linear peptide analogs of GA.
(§2) Figure 2 Cytokine level of IL‐1Ra in supernatants of primary human monocytes of healthy donors treated with peptide dendrimers, evaluated by ELISA (bars, left vertical axis) and mRNA levels (▴, right vertical axis). […] For mRNA levels evaluation, 2×10^6 cells 3 mL^−1 in 6 well plates were incubated with 50 μg mL^−1 dendrimer or GA for 18 h. […]
(§3) Enzyme-linked immunosorbent assay (ELISA)
(§4) Monocytes (5×10^4 cells/200 μL well; 96-well plates) were preincubated for 1 h with or without compounds in RPMI-1640 medium supplemented with 10% heat-inactivated FBS, 50 μg/mL streptomycin, 50 U/mL penicillin, 2 mM L-glutamine, and 5 μg/mL polymyxin B sulfate and then cultured for 48 h in the presence or absence of LPS (100 ng/mL) (2). The production of IL-1Ra was measured in culture supernatants by commercially available enzyme immunoassay according to manufacture protocol.
(§5) Figure S2. Cytokine level of IL-1Ra in supernatants of monocytes for active dendrimers and analogues evaluated by ELISA assay on primary human monocytes of healthy donors. 5×10^4 cells/200 µL in 96 well plates, were incubated with dendrimers or GA as a control for 48 h in presence or absence of LPS (100 ng/mL), in a range of concentrations (50-25 µg/mL) (mean ± SD, n = 2 different experiments). The results are present as the difference between each sample and the non-treated sample to take into account the difference between base line for each donor.
(§6) Figure S3. Cytokine level of IL-1Ra in supernatants of monocytes for active dendrimers and […]
(§7) presence or absence of LPS (100 ng/mL), in a range of concentrations (100-12.5 µg/mL) (mean ± SD, n = 3 different experiments). […]

[2] = test system: IL-1Ra release from human primary monocytes; experiment: as above; assay type: cell-based; parameters: key: +: Ability to induce IL‐1Ra on primary monocytes after 48 h of incubation in the presence of 25–50 μg mL^−1 compound; Ability to induce IL‐1Ra on primary monocytes after 48 h of incubation in the presence of 25–50 μg mL^−1 compound; details: for Act. (ability to induce IL-1Ra): Table 1, 48 h, 25–50 μg mL^−1 compound; for IL-1Ra: 48 h
Experimental: as §1, §2, §3, §4, §5, §6, §7

[3] = test system: IL-1Ra release from human primary monocytes; experiment: as above; assay type: cell-based; details: primary human monocytes of healthy donors, 25 and 50 μg mL^−1, 48 h
Experimental: as §1, §2, §3, §4, §5, §6, §7

[4] = cited from earlier work
[5] = Circular dichroism spectroscopy; assay type: physicochemical; details: 100 μg/mL, 8 mM phosphate buffer pH 7.2/7.4
Experimental: In terms of stereochemistry, activity was lost with D‐enantiomers D‐1 and D‐4, similar to the inactivity reported for D‐enantiomeric GA.[2]
Circular dichroism (CD) experiments were measured on a Jasco J-715 Spectropolarimeter. All the experiments were performed using Hellma Suprasil 110-QS 0.1 cm cuvettes. For each peptide, the measurements were performed in phosphate buffer (PB, pH=7.2, 8 mM) and in the presence of 5 mM dodecylphosphocholine. The concentration of the peptides was 100.0 μg/mL and each sample was measured using one accumulation. The scan rate was 10 nm/min, pitch 0.5 nm, response 16 sec and bandwidth 1.0 nm. The nitrogen flow was kept >8.5 L/min. After each measurement, the cuvettes were washed successively with 1 M HCl, milli-Q H2O and PB buffer. The baseline was recorded under the same conditions and subtracted manually.
Figure S12. Circular dichroism spectra of GA, 1 and 4 (100 μg/mL) in 8 mM phosphate buffer at pH 7.4 (a) or in presence of 5 mM dodecylphosphocholine. Percentage of α-helix and β- sheet was processed by Dichroweb using the CONTIN analysis program and reference set 3.
(1 picture or pasted object on this page, not shown here)

lymphocytes = experiment: IL-1Ra in supernatants of lymphocytes (rest of leukocytes after Percoll), ELISA; assay type: cell-based, human; details: rest of leukocytes after Percoll gradient, 50-25 µg/mL, 48 h, n = 2
Experimental: Similar donor dependent responses of cytokine release to GA have been reported for IL‐27.[38]
Figure S3. Cytokine level of IL-1Ra in supernatants of monocytes for active dendrimers and analogues evaluated by ELISA assay on primary human monocytes of healthy donors. 5×10^4 cells/200 µL in 96 well plates, were incubated with dendrimers or GA as a control for 48 h in presence or absence of LPS (100 ng/mL), in a range of concentrations (100-12.5 µg/mL) (mean ± SD, n = 3 different experiments).
Figure S4. Cytokine level of IL-1Ra in supernatants of monocytes enriched fraction (a) and the rest of leukocytes (b) for active dendrimers and analogues evaluated by ELISA assay.
Monocytes fraction was separated from whole PBMC by Percoll density gradient centrifugation. 5×10^4 cells/200 µL in 96 well plates were incubated with dendrimers or GA (50-25 µg/mL) as a control for 48 h (mean ± SD, n = 2 different experiments). […]

conformation by CD spectra [5] | Substance | Act. (ability to induce IL-1Ra) ([1]; Table S2 analogs of 1 and 4) | IL-1Ra [1] | Act. (ability to induce IL-1Ra) [2] | IL-1Ra ([2]; supplement s001.csv) | IL-1Ra ([2]; supplement s003.zip SMILES csv) | IL-1Ra release activity (in words) [3] | Act. (ability to induce IL-1Ra) ([1]; Table S1 initial library) | crossing of the BBB [4] | induction of IL-1Ra in lymphocytes (lymphocytes)
 | (AK)8(KAK)4(KEKA)2KAKEAYCA-NH2 [compound 34] | + | + | + | + | + | preserved |  |  | 
 | (AcKA)8(KAK)4(KEKA)2KAKEAYCA-NH2 [Ac1] |  | - | − |  |  | abolished | - |  | 
 | (AcKA)8(KKKAK)4(KEKA)2KAKEAYCA-NH2 [Ac36] | + | + | + | + | + | preserved |  |  | 
 | (FumKA)8(KAK)4(KEKA)2KAKEAYCA-NH2 [Fum1] |  | - |  |  |  | abolished | - |  | 
 | (FumKA)8(KKAKE)4(KYKAKA)2KAYKKA-OH [Fum4] |  | - |  |  |  | abolished | - |  | 
 | (FumKA)8(KKKAK)4(KEKA)2KAKEAYCA-NH2 [Fum36] | + | + | + | + | + | preserved |  |  | 
 | (KA)8(KAK)4(KEKA)2KAKEAYCA-NH2 [sr-1] | + | + | + | + | + | as active as the pure L‐enantiomers |  |  | 
 | (KA)8(KAK)4(KEKA)2KAKEAYCA-NH2)2 (disulfide) [1-1, disulfide bridged dimer of 1] | + | + | + | + | + | active |  |  | 
 | (KA)8(KKAKE)4(KYKAKA)2KAYKKA-OH [sr-4] | + | + | + | + | + | as active as the pure L‐enantiomers |  |  | 
 | (KA)8(KKKAK)4(KEKA)2KAKEAYCA-NH2 [compound 36] | + | - | + | + |  | preserved |  |  | 
 | (KK)8(KAK)4(KEKA)2KAKEAYCA-NH2 [compound 35] | + | + | + | + | + | preserved |  |  | 
α‐helical | Glatiramer acetate [GA, reference compound] |  |  | + |  |  |  |  | does not cross the BBB | did not occur
